Molecular target: T1, Adenosine receptor A1 (Rattus norvegicus, UniProt P25099)
T1 sequence (P25099 whole entry): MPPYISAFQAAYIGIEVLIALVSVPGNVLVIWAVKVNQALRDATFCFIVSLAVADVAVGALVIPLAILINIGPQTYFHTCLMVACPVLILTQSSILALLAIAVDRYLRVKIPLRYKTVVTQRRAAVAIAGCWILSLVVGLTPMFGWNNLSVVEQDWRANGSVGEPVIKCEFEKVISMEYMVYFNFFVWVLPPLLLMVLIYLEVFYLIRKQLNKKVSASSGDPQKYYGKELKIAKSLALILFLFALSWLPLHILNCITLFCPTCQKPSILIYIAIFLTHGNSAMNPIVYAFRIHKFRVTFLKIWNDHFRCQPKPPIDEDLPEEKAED
Test: Inhibition of [3H]CHA binding to Adenosine A1 receptor in rat brain membranes
Type: cell membranes

Row | Structure (SMILES) | Ki
1 | CCCn1c(=O)c2[nH]c(-c3ccc(Cl)cc3N)nc2n(CCC)c1=O | 4.8 nM
2 | Cc1nn(C)c2c(=O)[nH]c(-c3ccc(Cl)cc3N)nc12 | 310 nM

Reference: ChEMBL document CHEMBL1124797, “A model for the antagonist binding site on the adenosine A1 receptor, based on steric, electrostatic, and hydrophobic properties” (J Med Chem, 1990)
